In US12391695B2, “PRMT5 inhibitors” (Lupin Limited, priority 2019, dated 2025):
Like-named read-outs stand apart in the source and are kept apart here.

What was measured:
[1] = tested on: Z-138 cells; experiment: Anti-cancer assay (Z-138), cell viability by CellTiterGlo; type: cell-based; conditions: Homo sapiens, 96 h treatment, read-out: IC50 (activity range), inhibition of cell viability
Method: Z-138 cells were seeded at a density of 2000-3000 cells per well in culture media (IMDM+10% FBS). PANC-1 (ATCC, CRL-1469™) and MIA PaCa-2 (ATCC, CRL-1420™) cells were seeded at a density of 200-300 cells per well in culture media (DMEM+10% FBS). Cells were seeded in opaque, flat bottomed tissue culture grade 96-well plates and Z-138 cells (suspension) were seeded and treated on the same day with various concentrations of test compounds. PANC-1 and MIA PaCa-2 cells, being adherent, were kept for overnight settlement at standard cell culture conditions (37° C., 5% CO2). On the following day, cells were treated with various concentrations of test compounds. Cells were treated with test compounds for a period of 96 h, 7 days and 10 days, for Z-138 cells, PANC-1 cells and MIA PaCa-2 cells, respectively. Cell viability was assessed using CellTiterGlo™ (Promega, USA) as per manufacturer's instructions. Relative Light Units (RLU) were read in Synergy™ 2 reader (Biotek, USA). The assay measures cellular ATP as an indicator of cell viability. RLU is proportional to the number of viable cells in the respective well. % inhibition of cell viability was calculated relative to the vehicle control samples containing media with 0.1% DMSO alone as per the formula below. (Avg. of Untreated Control−Avg. of Test)×100 Avg. Of Untreated Control
The IC50 values of individual compounds were calculated with Non Linear Regression Analysis using Graph Pad Prism (Graph Pad software, Inc, USA). • Anti-Cancer Assay (Z-138)

[2] = tested on: SDMA; experiment: SDMA inhibition assay in Z-138 cells (ELISA with anti-SDMA antibody); type: cell-based; conditions: Homo sapiens, Z-138, 48 h, 48 h treatment
Method: Z-138 cells (ATCC, CRL-3001™) were seeded at a density of 1 million cells/well in transparent, flat bottomed tissue culture grade 48-well plates. Cells were treated with various concentration of test compounds for a period of 48 h. Cell lysate was prepared using 1× CST Lysis buffer (Cell Signaling Technology, USA) and 500 ng/well/50 μL of lysate in pH 9.6 carbonate buffer was coated on 96-well Maxisorb plate and incubated overnight at 4° C. The plate was washed twice in 1×PBS containing 0.05% Tween 20 and blocked in 1% BSA for 1 h at ambient temperature. Further, the plate was incubated first with primary antibody (anti-SDMA antibody; CST #13222s) at ambient temperature for 2 h and then with HRP-conjugated secondary antibody at ambient temperature for 1 h with 2 intermittent washing steps in between.
For luminiscence based detection, HRP substrates (substrate A+substrate B in a 1:1 proportion) were added followed by luminiscence reading after 30 min in Synergy™ 2 reader (Biotek, USA).
For absorbance based detection, TMB substrate was added followed by addition of STOP solution (2N H2SO4) post colour development and absorbance (excitation 450 nm and emission 540 nm) was measured in Synergy™ 2 reader (Biotek, USA).
% inhibition of SDMA was calculated relative to the vehicle control samples containing media with 0.1% DMSO alone as per the formula below. (Avg. of Untreated Control−Avg. of Test)×100 Avg. Of Untreated Control
The IC50 values of individual compounds were calculated with Non Linear Regression Analysis using Graph Pad Prism (Graph Pad software, Inc, USA).

[3] = biological target: PRMT5:MEP50 (Homo sapiens, UniProt O14744); experiment: PRMT5 biochemical assay (HTRF, biotinylated H4R3 substrate), protocols 1 and 2; conditions: 1 μM SAM, 50 nM biotinylated H4R3, protocol 1 or 2 not given, read-out: IC50 (activity range), inhibition of PRMT5
Method: (§1) Inhibitory effect of compounds on PRMT5 was assessed using HTRF detection technology in biochemical assay. Biotinylated H4R3 (residues 1-21) was used as a substrate. Compounds were pre-incubated with 15-25 ng PRMT5:MEP50 per well of a 384-well plate for 30 min at room temperature in the assay buffer containing 20 mM Bicine, pH 7.6, 25 mM NaCl, 2 mM DTT, 0.01% Chicken albumin and 0.01% Tween-20. Reaction was initiated by adding 1 μM of SAM and 50 nM biotinylated H4R3. Total assay volume was 15 μL. Reaction was continued for 120 min at room temperature. Then detection solution containing Streptavidin-Eu cryptate, anti-rabbit IgG-XL-665, Histone H4R3 Dimethyl Symmetric (H4R3me2s) Polyclonal Antibody, all prepared in HTRF detection buffer was added and further incubated for 30 min at room temperature. HTRF signal was recorded in PHERAStar microplate reader. Ratio of signal obtained at 665 nm and 620 nm was used to compute the percent inhibition of compound as follows % Inhibition=100−((Test Ratio−Negative control Ratio)/(Positive control Ratio−Negative control Ratio)*100) where Positive control=PRMT5+SAM+H4R3 Negative control=PRMT5+H4R3 Biochemical Assay Protocol 2
as §1, with “2.5” for “15-25”, “4 h” for “120 min”, “control=PRMT5+H4R3” for “control=PRMT5+H4R3 Biochemical Assay Protocol 2”

[4] = range with mixed units pM/nM, units kept in the value
[5] = read-out: IC50 (activity range), SDMA inhibition

Chain of PRMT5:MEP50 (O14744 whole entry, the tested form may be a part): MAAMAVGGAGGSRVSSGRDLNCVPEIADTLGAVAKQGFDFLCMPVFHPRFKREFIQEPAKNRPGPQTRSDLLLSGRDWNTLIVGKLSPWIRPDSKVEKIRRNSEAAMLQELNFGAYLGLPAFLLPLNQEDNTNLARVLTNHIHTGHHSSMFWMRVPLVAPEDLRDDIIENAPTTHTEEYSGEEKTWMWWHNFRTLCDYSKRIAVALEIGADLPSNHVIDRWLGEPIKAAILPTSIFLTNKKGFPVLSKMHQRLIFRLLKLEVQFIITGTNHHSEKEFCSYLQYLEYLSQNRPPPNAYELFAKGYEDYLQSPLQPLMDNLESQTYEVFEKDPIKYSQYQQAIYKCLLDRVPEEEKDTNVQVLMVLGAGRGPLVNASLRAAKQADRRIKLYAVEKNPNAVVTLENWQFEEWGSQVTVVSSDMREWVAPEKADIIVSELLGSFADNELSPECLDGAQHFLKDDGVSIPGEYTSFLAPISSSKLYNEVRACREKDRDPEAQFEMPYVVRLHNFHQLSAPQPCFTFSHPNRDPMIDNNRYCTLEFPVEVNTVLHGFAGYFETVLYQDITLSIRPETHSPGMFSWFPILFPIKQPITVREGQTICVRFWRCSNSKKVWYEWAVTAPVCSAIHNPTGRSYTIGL
Chain of PRMT5:MEP50 (Q9BQA1 whole entry partner, the tested form may be a part): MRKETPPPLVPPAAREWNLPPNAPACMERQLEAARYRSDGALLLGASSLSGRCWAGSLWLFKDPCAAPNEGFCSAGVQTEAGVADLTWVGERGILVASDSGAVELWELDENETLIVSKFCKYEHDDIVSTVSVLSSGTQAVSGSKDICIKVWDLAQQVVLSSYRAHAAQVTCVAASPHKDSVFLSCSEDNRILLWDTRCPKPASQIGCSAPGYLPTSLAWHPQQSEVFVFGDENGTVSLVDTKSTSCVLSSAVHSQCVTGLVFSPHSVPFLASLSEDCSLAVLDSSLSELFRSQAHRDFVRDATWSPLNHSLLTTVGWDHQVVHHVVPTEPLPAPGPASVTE

SMILES	IC50 [1] [pM]	IC50 [2, 4] [pM]	IC50 [3] [nM]	IC50 [1, 4] [pM]	IC50 [2, 5] [pM]
Nc1nc2cc(OCC3=C[C@@H](n4cnc(N)c(F)c4=O)[C@H](O)[C@@H]3O)cc(F)c2cc1Cl [Compound 19, 6-amino-3-((1R,4R,5S)-3-(((2-amino-3-chloro-5-fluoroquinolin-7-yl)oxy)methyl)-4,5-dihydroxycyclopent-2-en-1-yl)-5-fluoropyrimidin-4 (3H)-one]	> 1000	100 to 1000	> 0.95	–	–
Nc1nc2cc(CCC3=C[C@@H](n4ncc5c(N)ncnc54)[C@H](O)[C@@H]3O)cc(F)c2cc1Cl [Compound 5, (1S,2R,5R)-5-(4-Amino-1H-pyrazolo[3,4-d]pyrimidin-1-yl)-3-(2-(2-amino-3-chloro-5-fluoroquinolin-7-yl)ethyl)cyclopent-3-ene-1,2-diol]	–	100 to 1000	0.25 to 0.95	101 to 1000	–
Cc1ncnc2c1ccn2[C@@H]1C=C(CCc2cc(C(F)F)cc3c2CNCC3)[C@@H](O)[C@H]1O [Compound 14, (1S,2R,5R)-3-(2-(6-(difluoromethyl)-1,2,3,4-tetrahydroisoquinolin-8-yl)ethyl)-5-(4-methyl-7H-pyrrolo[2,3-d]pyrimidin-7-yl)cyclopent-3-ene-1,2-diol]	–	–	0.25 to 0.95	101 to 1000	1100 to 50000
Nc1ncnc2c1ccn2[C@@H]1C=C(CCc2ccc(F)c3c2CNCC3)[C@@H](O)[C@H]1O [Compound 9, (1S,2R,5R)-5-(4-amino-7H-pyrrolo[2,3-d]pyrimidin-7-yl)-3-(2-(5-fluoro-1,2,3,4-tetrahydroisoquinolin-8-yl)ethyl)cyclopent-3-ene-1,2-diol]	> 1000	–	0.25 to 0.95	–	1100 to 50000
Cc1cc2c(c(CCC3=C[C@@H](n4ccc5c(N)ncnc54)[C@H](O)[C@@H]3O)c1)CNCC2 [Compound 8, (1S,2R,5R)-5-(4-amino-7H-pyrrolo[2,3-d]pyrimidin-7-yl)-3-(2-(6-methyl-1,2,3,4-tetrahydroisoquinolin-8-yl)ethyl)cyclopent-3-ene-1,2-diol]	> 1000	–	0.25 to 0.95	–	1100 to 50000
Nc1ncnc2c1ccn2[C@@H]1C=C(CCc2cc(C(F)F)cc3c2CNCC3)[C@@H](O)[C@H]1O [Compound 10, (1S,2R,5R)-5-(4-amino-7H-pyrrolo[2,3-d]pyrimidin-7-yl)-3-(2-(6-(difluoromethyl)-1,2,3,4-tetrahydroisoquinolin-8-yl)ethyl)cyclopent-3-ene-1,2-diol]	–	100 to 1000	0.25 to 0.95	101 to 1000	–
Cc1cn([C@@H]2C=C(CCc3cc(C(F)F)c(F)c4c3CNCC4)[C@@H](O)[C@H]2O)c2ncnc(N)c12 [Compound 25, (1S,2R,5R)-5-(4-amino-5-methyl-7H-pyrrolo[2,3-d]pyrimidin-7-yl)-3-(2-(6-(difluoromethyl)-5-fluoro-1,2,3,4-tetrahydroisoquinolin-8-yl)ethyl)cyclopent-3-ene-1,2-diol]	> 1000	–	0.25 to 0.95	–	1100 to 50000
Cc1nc(N)c2cnn([C@@H]3C=C(CCc4cc(F)c5cc(Cl)c(N)nc5c4)[C@@H](O)[C@H]3O)c2n1 [Compound 6, (1S,2R,5R)-3-(2-(2-amino-3-chloro-5-fluoroquinolin-7-yl)ethyl)-5-(4-amino-6-methyl-1H-pyrazolo[3,4-d]pyrimidin-1-yl)cyclopent-3-ene-1,2-diol]	–	–	0.25 to 0.95	101 to 1000	1100 to 50000
Nc1nc2cc(CCC3=C[C@@H](n4ccc5c(N)ncnc54)[C@H](O)[C@@H]3O)cnc2cc1Cl [Compound 2, (1S,2R,5R)-3-(2-(6-Amino-7-chloro-1,5-naphthyridin-3-yl)ethyl)-5-(4-amino-7H-pyrrolo [2,3-d]pyrimidin-7-yl)cyclopent-3-ene-1,2-diol]	> 1000	–	0.25 to 0.95	–	1100 to 50000
Nc1ncnc2c1ccn2[C@@H]1C=C(COc2cc(C(F)F)c(F)c3c2CNCC3)[C@@H](O)[C@H]1O [Compound 12, (1S,2R,5R)-5-(4-amino-7H-pyrrolo[2,3-d]pyrimidin-7-yl)-3-(((6-(difluoromethyl)-5-fluoro-1,2,3,4-tetrahydroisoquinolin-8-yl)oxy)methyl)cyclopent-3-ene-1,2-diol]	> 1000	–	0.25 to 0.95	–	1100 to 50000
Nc1ncnc2c1ccn2[C@@H]1C=C(CCc2cc(F)c(F)c3c2CNCC3)[C@@H](O)[C@H]1O [Compound 21, (1S,2R,5R)-5-(4-amino-7H-pyrrolo[2,3-d]pyrimidin-7-yl)-3-(2-(5,6-difluoro-1,2,3,4-tetrahydroisoquinolin-8-yl)ethyl)cyclopent-3-ene-1,2-diol]	–	–	0.25 to 0.95	101 to 1000	1100 to 50000
Cc1cc(=O)n([C@@H]2C=C(COc3cc(F)c4cc(Cl)c(N)nc4c3)[C@@H](O)[C@H]2O)cn1 [Compound 18, 3-((1R,4R,5S)-3-(((2-amino-3-chloro-5-fluoroquinolin-7-yl)oxy)methyl)-4,5-dihydroxycyclopent-2-en-1-yl)-6-methylpyrimidin-4 (3H)-one]	> 1000	–	> 0.95	–	1100 to 50000
Nc1cnc2ccc(CCC3=C[C@@H](n4ccc5c(N)ncnc54)[C@H](O)[C@@H]3O)cc2n1 [Compound 3, (1S,2R,5R)-5-(4-Amino-7H-pyrrolo[2,3-d]pyrimidin-7-yl)-3-(2-(3-aminoquinoxalin-6-yl)ethyl)cyclopent-3-ene-1,2-diol]	> 1000	–	0.25 to 0.95	–	1100 to 50000
Nc1ncnc2c1ccn2[C@@H]1C=C(CCc2ccc(C(F)F)c3c2CNCC3)[C@@H](O)[C@H]1O [Compound 11, (1S,2R,5R)-5-(4-amino-7H-pyrrolo[2,3-d]pyrimidin-7-yl)-3-(2-(5-(difluoromethyl)-1,2,3,4-tetrahydroisoquinolin-8-yl)ethyl)cyclopent-3-ene-1,2-diol]	> 1000	–	0.25 to 0.95	–	1100 to 50000
